Patent publication US9512315B2, “Quenching dye for labeling biomolecules and method for preparing the same” (DKC CORPORATION, priority 2013, dated 2016)
Several values for one entry are separate records, joined by “and”; a condition that tells them apart may be missing. Identical values can stand only once.

Key:
Type in all cases: physicochemical
[1] = Solubility in water (stock solution preparation)
Procedure: (§1) In order to investigate the absorption intensity and spectrum of the anthraquinone compound according to the present disclosure, the absorption spectra of the compounds of Example 1 and Example 6 and commercially available BHQ-3 as a comparative example were compared. Stock solutions were prepared by dissolving the compounds of Example 1 and Example 6 according to the present disclosure in distilled water. BHQ-3 was dissolved in a small amount of DMSO according to the manufacturer's instructions and diluted with distilled water.

[2] = Test Example 1: comparison of absorption spectra; conditions: for negative absorption: FIG. 1, range of 750-800 nm
Procedure: (§2) LC/MS was measured by ESI (electrospray ionization) using the LC/MSD SL of Agilent Technologies. The absorption spectrum and maximum absorption wavelength (λabs) of the synthesized dye were measured with Lambda 45 of PerkinElmer. The emission spectrum and maximum emission wavelength (λfl) were measured with LS-55 of PerkinElmer.
as §1

[3] = Maximum absorption wavelength (λabs) of the synthesized dye in PBS
Procedure: as §2

SMILES	solubility in water [1]	negative absorption [2]	range of absorption spectra, normalized to the maximum absorption intensity ([2]; FIG. 2)	λabs (maximum absorption wavelength) [3]
CCN(CC)c1ccc2nc3ccc(/N=N/c4ccc(N(C)CCCC(=O)O)cc4)cc3[n+](-c3ccccc3)c2c1 [BHQ-3, reference compound]	not dissolved in water	negative (−) absorption	300-750 nm	–
CN(CCCCCCCC(=O)ON1C(=O)CCC1=O)c1ccc(/N=N/c2ccc(Nc3cc(S(=O)(=O)O)c(N)c4c3C(=O)c3ccccc3C4=O)c(S(=O)(=O)O)c2)cc1 [Example 6]	–	did not show negative absorption	–	–
C=CS(=O)(=O)CCNC(=O)CCCCCCCN(C)c1ccc(/N=N/c2ccc(Nc3cc(S(=O)(=O)O)c(N)c4c3C(=O)c3ccccc3C4=O)c(S(=O)(=O)O)c2)cc1 [Example 7]	–	–	–	472 nm and 624 nm

More lines, now with the values ahead:

solubility in water [1]	negative absorption [2]	range of absorption spectra, normalized to the maximum absorption intensity ([2]; FIG. 2)	λabs (maximum absorption wavelength) [3]	SMILES
–	did not show negative absorption	–	481 nm and 626 nm	CN(CCCCCC(=O)O)c1ccc(/N=N/c2ccc(Nc3cc(S(=O)(=O)O)c(N)c4c3C(=O)c3ccccc3C4=O)c(S(=O)(=O)O)c2)cc1 [Example 1]
–	–	–	481 nm and 626 nm	C=CS(=O)(=O)CCNC(=O)CCCCCN(C)c1ccc(/N=N/c2ccc(Nc3cc(S(=O)(=O)O)c(N)c4c3C(=O)c3ccccc3C4=O)c(S(=O)(=O)O)c2)cc1 [Example 3]
–	–	–	472 nm and 624 nm	CN(CCCCCCCC(=O)O)c1ccc(/N=N/c2ccc(Nc3cc(S(=O)(=O)O)c(N)c4c3C(=O)c3ccccc3C4=O)c(S(=O)(=O)O)c2)cc1 [Example 5]
